# Assays:
# [1] = test system: human colon (HCT116) cancer xenografts; assay: Therapeutic Dose Study in nude mice bearing HCT116 xenografts; type: in vivo; settings: 70 mg/kg intra-tumorally; for decrease in the tumor size on day 31 relative to the control / mice that died or were sacrificed by day 31: 9 injections over three weeks; for mice that died or were sacrificed by day 31: groups of 10, control 60%; for P, decrease in the tumor size on day 31 relative to the control: 9 injections, paired two-tailed t-test, dead or sacrificed mice taken as 2000 mm^3
# Experimental: Male NCr nude mice, aged approximately 6-8 weeks were used for the study, which was carried out as a service by Taconic Biotechnology, Rensselaer, N.Y. Animals were maintained under virus free barrier conditions with continuous health monitoring. The administration of test materials, all data collection and disposal of study animals was in compliance with all relevant Taconic Biotechnology Standard Operating Procedures as well as The Guide for the Care and Use of Laboratory Animals. Study animals were observed upon arrival and daily throughout the study for overall health, behavior and morbidity. Test animals were subject to body weight measurement to determine dosage volumes of test articles.
# With this information, we then carried out the Therapeutic Dose Study of SNX9 and SNX9-1, in nude mice bearing established human colon (HCT116) cancer xenografts. HCT116 was from American Type Culture Collection (ATCC); ATCC information was referenced for the cryopreservation and growing of the cells. The cells were injected at 5×10^6 subcutaneously in the intra-scapular region. The tumor dimensions were measured using vernier calipers. To approximate the subcutaneous tumor size, the calipers were compressed on the skin slightly but not so tightly as to grip the subcutaneous mass. The maximal dimension of the tumor was recorded as L. The dimension perpendicular to L was recorded as W. The formula: Volume=0.5*L*W^2 was used. Eight days following tumor cell injection into the intra-scapular region, when all the tumor inoculi became palpable, groups of 10 mice were treated for 21 days with PBS (control), SNX9 or SNX9-1 (each at 70 mg/kg), dissolved as in the Range Finder Study.
# The compounds were injected intra-tumorally three times a week, on alternating days, for a total of 9 injections per animal over three weeks. Mice were sacrificed when tumor size exceeded 2000 mm^3. […] By day 31 (2 days after the end of treatment), 6 of 10 mice in the control group (60%) died or were sacrificed, as compared to 40% of the mice in SNX9-treated group and only 10% of the mice in SNX9-1 treated group. Statistical analysis of differences in the tumor size on day 31 was carried out using paired two-tailed t-test; for this analysis, the tumor volume of all the mice that died or were sacrificed before day 31 was assumed to be 2000 mm^3.
# CDK1/cyclinB (h) = target: T1, CDK1/cyclinB (h) (Homo sapiens, UniProt P06493); assay: Cyclin/CDK kinase assay (Upstate), CDK1/cyclinB; type: biochemical; settings: 100 μM, re-tested at 20 and 40 μM (SNX9, SNX2) or 10 and 20 μM (SNX9-1, SNX14)
# T1 construct: purchased Upstate Biotechnology, Inc
# T1 sequence (P06493 whole entry): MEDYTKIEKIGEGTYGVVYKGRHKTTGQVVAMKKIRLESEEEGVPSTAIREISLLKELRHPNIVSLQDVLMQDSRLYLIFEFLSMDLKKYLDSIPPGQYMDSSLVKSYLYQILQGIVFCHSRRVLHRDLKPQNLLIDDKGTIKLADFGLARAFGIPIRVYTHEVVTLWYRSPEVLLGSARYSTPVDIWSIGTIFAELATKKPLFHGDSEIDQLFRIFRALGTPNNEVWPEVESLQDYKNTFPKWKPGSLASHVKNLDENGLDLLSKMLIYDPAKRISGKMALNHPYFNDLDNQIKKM
# T1 sequence (P14635 whole entry partner): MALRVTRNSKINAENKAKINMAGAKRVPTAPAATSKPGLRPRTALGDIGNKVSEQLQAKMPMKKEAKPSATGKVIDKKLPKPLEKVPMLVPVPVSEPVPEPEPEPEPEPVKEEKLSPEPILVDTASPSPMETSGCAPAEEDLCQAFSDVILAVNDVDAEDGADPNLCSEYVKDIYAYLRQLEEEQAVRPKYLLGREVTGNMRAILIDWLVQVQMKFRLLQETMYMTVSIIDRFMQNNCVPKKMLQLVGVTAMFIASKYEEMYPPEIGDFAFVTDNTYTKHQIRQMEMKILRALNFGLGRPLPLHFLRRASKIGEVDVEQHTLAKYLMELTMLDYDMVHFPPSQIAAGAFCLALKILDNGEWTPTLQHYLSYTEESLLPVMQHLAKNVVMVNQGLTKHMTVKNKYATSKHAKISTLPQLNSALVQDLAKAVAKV
# Experimental: (§1) To test the above hypothesis, we determined whether several CDKI pathway inhibitors, including two SNX9 class compounds (SNX9 and SNX9-1), two compounds of a different structural class (SNX14 and SNX2) and another unrelated inhibitor (SNX35), inhibit the kinase activity of different complexes formed in vitro by purified cyclin/CDK complexes. This analysis was carried out as a service by Upstate Biotechnology, Inc.
# (§2) In a final reaction volume of 25 μl, CDK1/cyclinB (h) (5-10 μU) is incubated with 8 mM MOPS pH 7.0, 0.2 mM EDTA, 0.1 mg/ml histone H1, 10 mM MgAcetate and [γ-33P-ATP] (specific activity approx. 500 cpm/pmol, 45 μM concentration). The reaction is initiated by the addition of the MgATP mix. After incubation for 40 minutes at room temperature, the reaction is stopped by the addition of 5 μl of a 3% phosphoric acid solution. 10 μl of the reaction is then spotted onto a P30 filtermat and washed three times for 5 minutes in 75 mM phosphoric acid and once in methanol prior to drying and scintillation counting.
# (§3) At the first step, all the compounds were tested at 100 μM concentration. […] For SNX14 and SNX2, the relative efficacy of inhibition was CDK1>CDK2˜CDK3>CDK6. For SNX9 and SNX9-1, the order was CDK3>CDK1>CDK2>CDK6 (FIG. 12).
# [2] = test system: WI-38 and BJ-EN fibroblasts vs HT1080, HCT116, C33-A, Calu-6; assay: 3-day growth inhibition assay (Hoechst 33342), normal fibroblasts vs tumor cell lines; settings: 3-day assay, WI-38, BJ-EN vs HT1080, HCT116, C33-A
# Experimental: The assays were carried out in 96-well plates, in triplicates; the plated cell numbers for each cell line were determined in preliminary experiments to assure exponential growth over the 3-day period of the assay. The cell numbers were measured by staining DNA of attached cells with Hoechst 33342, and the results for each dose were expressed as the decrease in cell number relative to untreated cells. For some of the tumor/normal cell line combinations, the assays were repeated using CellTiter-Glo viability assay (Promega), with the same results.
# CDK3/cyclinE (h) = target: T2, CDK3/cyclinE (h) (Homo sapiens, UniProt Q00526); assay: Cyclin/CDK kinase assay (Upstate), CDK3/cyclinE; type: biochemical; settings: 100 μM, re-tested at 20 and 40 μM (SNX9, SNX2) or 10 and 20 μM (SNX9-1, SNX14)
# T2 construct: purchased Upstate Biotechnology, Inc
# T2 sequence (Q00526 whole entry): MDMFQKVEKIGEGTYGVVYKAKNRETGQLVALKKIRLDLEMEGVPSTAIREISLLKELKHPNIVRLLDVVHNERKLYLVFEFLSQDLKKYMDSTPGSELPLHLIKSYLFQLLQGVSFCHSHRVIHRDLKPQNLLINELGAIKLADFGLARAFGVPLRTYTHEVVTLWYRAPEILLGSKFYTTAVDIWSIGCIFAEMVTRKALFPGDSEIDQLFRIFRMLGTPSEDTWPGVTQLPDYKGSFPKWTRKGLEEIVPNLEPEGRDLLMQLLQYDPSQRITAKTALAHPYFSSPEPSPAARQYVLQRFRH
# T2 sequence (P24864 whole entry partner): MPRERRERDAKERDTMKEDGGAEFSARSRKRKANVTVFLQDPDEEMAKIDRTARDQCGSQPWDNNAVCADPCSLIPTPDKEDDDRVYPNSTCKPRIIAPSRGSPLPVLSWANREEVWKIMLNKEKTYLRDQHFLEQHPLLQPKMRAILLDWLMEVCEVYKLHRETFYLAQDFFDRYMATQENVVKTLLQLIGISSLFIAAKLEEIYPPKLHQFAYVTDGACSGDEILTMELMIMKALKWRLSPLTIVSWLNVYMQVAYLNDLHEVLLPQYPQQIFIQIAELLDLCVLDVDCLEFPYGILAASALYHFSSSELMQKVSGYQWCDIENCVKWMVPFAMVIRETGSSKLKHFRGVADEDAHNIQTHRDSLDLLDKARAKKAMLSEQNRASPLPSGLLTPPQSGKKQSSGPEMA
# Experimental: as §1
# as §2, with “CDK3/cyclinE” for “CDK1/cyclinB”, “mU)” for “μU)”, “mg/ml” for “mg/ml histone”, “200” for “45”
# as §3
# [3] = target: CDK2/cyclinA (h), CDK2/cyclinE (h); assay: Cyclin/CDK kinase assay (Upstate), CDK2/cyclinA and CDK2/cyclinE; type: biochemical, human; settings: 100 μM, re-tested at 20 and 40 μM (SNX9, SNX2) or 10 and 20 μM (SNX9-1, SNX14)
# Experimental: as §1
# as §2, with “CDK2/cyclinA” for “CDK1/cyclinB”, “mU)” for “μU)”
# In a final reaction volume of 25 μl, CDK2/cyclinE (h) (5-10 mU) is incubated with 8 mM MOPS pH 7.0, 0.2 mM EDTA, 0.1 mg/ml histone H1, 10 mM MgAcetate and [γ-33P-ATP] (specific activity approx. 500 cpm/pmol, 120 μM concentration). The reaction is initiated by the addition of the MgATP mix. […]
SMILES,decrease in the tumor size on day 31 relative to the control [1],mice that died or were sacrificed by day 31 [1] [%],"P, decrease in the tumor size on day 31 relative to the control [1]",kinase activity of CDK1 (CDC2) (CDK1/cyclinB (h)),"tumor selectivity of growth inhibition, tumor cells vs normal fibroblasts [2]",kinase activity of CDK3 (CDK3/cyclinE (h)),kinase activity of CDK2 [3]
Cc1[nH]c2c(Cl)cccc2c1CCN [SNX9],did not reach statistical significance,40,< 0.3,inhibited the kinase activities,inhibited all the tumor cells to a greater extent than normal fibroblasts,inhibited the kinase activities,inhibited the kinase activities
NCCc1c[nH]c2c(Cl)cc(Cl)cc12 [SNX9-1],highly significant,10,< 0.01,inhibited the kinase activities,inhibited all the tumor cells to a greater extent than normal fibroblasts,inhibited the kinase activities,inhibited the kinase activities
